In patent US20030203372A1, “Analysis method” (priority 2000, published 2003):

How the values were obtained:
HIF = assay: HRE-Luc luciferase reporter assay of HIF activity in transiently transfected 293T cells (evaluation of HIF prolyl hydroxylase inhibitors and EGLN3 isoforms); assay type: cell-based, human; details: normoxia, even when full length EGLN3 protein or EGLN3 splice variant was over-expressed; MIMO 0.4 mM
Experimental: As discussed above, the stability of HIF is controlled by proline hydroxylation, catalysed by the product of the EGLN3 gene which renders the HIF protein unstable. EGLN3 is only active in normoxia since the reaction that it catalyses requires oxygen.
Plasmid CMV-SVFL1 expresses full length EGLN3. Plasmid CMV-SVFL2 expresses the EGLN3 splice variant.
Three plasmid transfections were performed and pCIneo was used as the “stuffing”/control plasmid to fill the vacancies.
Transfected 293 cells were incubated under normoxia till the end of the experiment.

[1] = Hypoxia response of the referenced genes/sequences, summary in cross-reference Table 26; assay type: cell-based, human; details: direction of expression change of the gene/sequence in response to hypoxia
[2] = test system: primary human macrophages; assay: Custom gene array, macrophages exposed to hypoxia and/or IL-15; assay type: cell-based; details: relative to no cytokine, 20% oxygen = 1
Experimental: Gene expression levels were measured and compared using the custom gene array. In data analysis per-gene normalisation was set up such that expression values represent the fold-change compared with the expression in untreated normoxic cells. Genes which are increased in expression in response to TNFα by at least 2-fold, in either normoxic or hypoxic cells, are shown in Table 20. Genes which are decreased in expression in response to TNFα by at least 2-fold, in either normoxic or hypoxic cells, are shown in Table 21.
The cytokine IL-15 is implicated in several disease in which macrophages and hypoxia both feature as elements of the inflammatory state, such as in atherosclerosis (Wuttge D M et al Am J Pathol. 2001 159:417-23) and rheumatoid arthritis (McInnes I B et al Immunol Today. 1998 19:75-9). Although the main target of IL-15 is T-cells effects have also been shown on monocytes (Badolato R et al Blood. 1997 90:2804-9). Therefore genes which respond to both hypoxia and IL-15 are especially likely to be relevant to disease processes and have utility in the design of therapeutic products. Genes which are increased in expression in response to IL-15 by at least 2-fold, in either normoxic or hypoxic cells, are shown in Table 24. Genes which are decreased in expression in response to IL-15 by at least 2-fold, in either normoxic or hypoxic cells, are shown in Table 25.

[3] = test system: primary human macrophages; assay: Custom gene array, macrophages exposed to hypoxia and/or TNFα; assay type: cell-based; details: relative to no cytokine, 20% oxygen = 1

CCOC(=O)c1ccc(O)c(O)c1 [EDB]
HIF-PH inhibition (HIF): work as HIF-PH inhibitors

Alpha-2-macroglobulin
Hypoxia response [1]: Repression

Endothelin 1
Hypoxia response [1]: Repression

IL-15
ABL expression (clone p1H8, Seq ID 182) ([2]; 0.1% oxygen): 0.09
Abstrakt expression (clone p1C14, Seq ID 384) ([2]; 0.1% oxygen): 1.24
Adipophilin expression (clone p1B6, Seq ID 314) ([2]; 0.1% oxygen): 2.39
Adipophilin expression (clone p1B7, Seq ID 314) ([2]; 0.1% oxygen): 2.02
Adipophilin expression (clone p1B8, Seq ID 314) ([2]; 0.1% oxygen): 1.42
Adipophilin expression (clone p1B9, Seq ID 314) ([2]; 0.1% oxygen): 1.66
Aldolase C expression (clone p1A19, Seq ID 260) ([2]; 0.1% oxygen): 1.30
D123 expression (clone p1C7, Seq ID 370) ([2]; 0.1% oxygen): 0.90
EST expression (clone p1D19, Seq ID 144) ([2]; 0.1% oxygen): 1.39
EST expression (clone p1H6, Seq ID 192) ([2]; 0.1% oxygen): 0.67
EST expression (clone p2A14, Seq ID 446) ([2]; 0.1% oxygen): 0.51
Fatty-acid-Coenzyme A ligase, long-chain 2 expression (clone p1J11, Seq ID 466) ([2]; 0.1% oxygen): 1.29
GAPDH expression (clone p1A11, Seq ID 254) ([2]; 0.1% oxygen): 4.32
Glucose phosphate isomerase expression (clone p1C6, Seq ID 368) ([2]; 0.1% oxygen): 3.13
Glycogen synthase 1 expression (clone p1G24, Seq ID 276) ([2]; 0.1% oxygen): 0.55
Hypoxia-inducible protein 2 expression (clone p1D8, Seq ID 272) ([2]; 0.1% oxygen): 0.62
Keratin 6B expression (clone p1K14, Seq ID 422) ([2]; 0.1% oxygen): 0.11
Lactate dehydrogenase A expression (clone p1A8, Seq ID 224) ([2]; 0.1% oxygen): 2.29
Lactate dehydrogenase A expression (clone p1A9, Seq ID 224) ([2]; 0.1% oxygen): 1.83
Metallothionein 2A expression (clone p1A23, Seq ID 266) ([2]; 0.1% oxygen): 3.08
Neutral sphingomyelinase (N-SMase) activation associated factor expression (clone p1J22, Seq ID 428) ([2]; 0.1% oxygen): 0.11
Proline 4-hydroxylase, alpha polypeptide II expression (clone p1B4, Seq ID 350) ([2]; 0.1% oxygen): 1.34
SCYA2 expression (clone p1P5, Seq ID 396) ([2]; 0.1% oxygen): 1.37
SCYA7 expression (clone p1J5, Seq ID 464) ([2]; 0.1% oxygen): 1.61
SCYA8 expression (clone p1I21, Seq ID 480) ([2]; 0.1% oxygen): 1.55
Triosephosphate isomerase 1 expression (clone p1A20, Seq ID 262) ([2]; 0.1% oxygen): 1.22
Uridine 5′ monophosphate hydrolase 1 expression (clone p1I7, Seq ID 50) ([2]; 0.1% oxygen): 3.61
cDNA: FLJ23019 fis, clone LNG00916 expression (clone p1J16, Seq ID 454) ([2]; 0.1% oxygen): 7.27
hypothetical protein FLJ10206 expression (clone p1J6, Seq ID 40) ([2]; 0.1% oxygen): 0.18
hypothetical protein FLJ22690 expression (clone p1H5, Seq ID 206) ([2]; 0.1% oxygen): 1.59
hypothetical protein MGC4549 expression (clone p1I12, Seq ID 152) ([2]; 0.1% oxygen): 0.28
ABL expression (clone p1H8, Seq ID 182) ([2]; 20% oxygen): 1.22
Abstrakt expression (clone p1C14, Seq ID 384) ([2]; 20% oxygen): 0.40
Adipophilin expression (clone p1B6, Seq ID 314) ([2]; 20% oxygen): 0.37
Adipophilin expression (clone p1B7, Seq ID 314) ([2]; 20% oxygen): 0.30
Adipophilin expression (clone p1B8, Seq ID 314) ([2]; 20% oxygen): 0.23
Adipophilin expression (clone p1B9, Seq ID 314) ([2]; 20% oxygen): 0.41
Aldolase C expression (clone p1A19, Seq ID 260) ([2]; 20% oxygen): 0.35
D123 expression (clone p1C7, Seq ID 370) ([2]; 20% oxygen): 0.47
EST expression (clone p1D19, Seq ID 144) ([2]; 20% oxygen): 2.27
EST expression (clone p1H6, Seq ID 192) ([2]; 20% oxygen): 1.95
EST expression (clone p2A14, Seq ID 446) ([2]; 20% oxygen): 1.08
Fatty-acid-Coenzyme A ligase, long-chain 2 expression (clone p1J11, Seq ID 466) ([2]; 20% oxygen): 1.64
GAPDH expression (clone p1A11, Seq ID 254) ([2]; 20% oxygen): 0.52
Glucose phosphate isomerase expression (clone p1C6, Seq ID 368) ([2]; 20% oxygen): 0.57
Glycogen synthase 1 expression (clone p1G24, Seq ID 276) ([2]; 20% oxygen): 0.88
Hypoxia-inducible protein 2 expression (clone p1D8, Seq ID 272) ([2]; 20% oxygen): 1.25
Keratin 6B expression (clone p1K14, Seq ID 422) ([2]; 20% oxygen): 1.48
Lactate dehydrogenase A expression (clone p1A8, Seq ID 224) ([2]; 20% oxygen): 0.48
Lactate dehydrogenase A expression (clone p1A9, Seq ID 224) ([2]; 20% oxygen): 0.49
Metallothionein 2A expression (clone p1A23, Seq ID 266) ([2]; 20% oxygen): 1.26
Neutral sphingomyelinase (N-SMase) activation associated factor expression (clone p1J22, Seq ID 428) ([2]; 20% oxygen): 1.51
Proline 4-hydroxylase, alpha polypeptide II expression (clone p1B4, Seq ID 350) ([2]; 20% oxygen): 0.50
SCYA2 expression (clone p1P5, Seq ID 396) ([2]; 20% oxygen): 4.51
SCYA7 expression (clone p1J5, Seq ID 464) ([2]; 20% oxygen): 3.27
SCYA8 expression (clone p1I21, Seq ID 480) ([2]; 20% oxygen): 3.77
Triosephosphate isomerase 1 expression (clone p1A20, Seq ID 262) ([2]; 20% oxygen): 0.36
Uridine 5′ monophosphate hydrolase 1 expression (clone p1I7, Seq ID 50) ([2]; 20% oxygen): 4.98
cDNA: FLJ23019 fis, clone LNG00916 expression (clone p1J16, Seq ID 454) ([2]; 20% oxygen): 5.76
hypothetical protein FLJ10206 expression (clone p1J6, Seq ID 40) ([2]; 20% oxygen): 1.28
hypothetical protein FLJ22690 expression (clone p1H5, Seq ID 206) ([2]; 20% oxygen): 2.37
hypothetical protein MGC4549 expression (clone p1I12, Seq ID 152) ([2]; 20% oxygen): 1.64

IL-17
Decidual protein induced by progesterone expression (clone p1C16, Seq ID 388) ([3]; 0.1% oxygen): 0.51
EST expression (clone p1H4, Seq ID 214) ([3]; 0.1% oxygen): 0.58
EST expression (clone p2A14, Seq ID 446) ([3]; 0.1% oxygen): 0.40
Fatty-acid-Coenzyme A ligase, long-chain 2 expression (clone p1J11, Seq ID 466) ([3]; 0.1% oxygen): 1.28
GAPDH expression (clone p1A11, Seq ID 254) ([3]; 0.1% oxygen): 1.84
GRO1 expression (clone p1I24, Seq ID 486) ([3]; 0.1% oxygen): 1.28
GRO2 expression (clone p1I19, Seq ID 482) ([3]; 0.1% oxygen): 1.43
Glucose phosphate isomerase expression (clone p1C6, Seq ID 368) ([3]; 0.1% oxygen): 1.43
Interleukin 8 expression (clone p1B14, Seq ID 252) ([3]; 0.1% oxygen): 7.13
Interleukin 8 expression (clone p1B15, Seq ID 252) ([3]; 0.1% oxygen): 9.71
Interleukin 8 expression (clone p1B16, Seq ID 252) ([3]; 0.1% oxygen): 12.2
Neutral sphingomyelinase (N-SMase) activation associated factor expression (clone p1J22, Seq ID 428) ([3]; 0.1% oxygen): 0.11
Plasminogen activator inhibitor, type 1 expression (clone p1B18, Seq ID 236) ([3]; 0.1% oxygen): 0.78
SCYA2 expression (clone p1P5, Seq ID 396) ([3]; 0.1% oxygen): 0.58
SCYA4 expression (clone p1K8, Seq ID 408) ([3]; 0.1% oxygen): 0.83
cDNA YI27F12 expression (clone p1E15, Seq ID 108) ([3]; 0.1% oxygen): 0.56
hypothetical protein FLJ10206 expression (clone p1J6, Seq ID 40) ([3]; 0.1% oxygen): 0.23
Decidual protein induced by progesterone expression (clone p1C16, Seq ID 388) ([3]; 20% oxygen): 0.73
EST expression (clone p1H4, Seq ID 214) ([3]; 20% oxygen): 0.49
EST expression (clone p2A14, Seq ID 446) ([3]; 20% oxygen): 0.56
Fatty-acid-Coenzyme A ligase, long-chain 2 expression (clone p1J11, Seq ID 466) ([3]; 20% oxygen): 1.63
GAPDH expression (clone p1A11, Seq ID 254) ([3]; 20% oxygen): 2.60
GRO1 expression (clone p1I24, Seq ID 486) ([3]; 20% oxygen): 2.29
GRO2 expression (clone p1I19, Seq ID 482) ([3]; 20% oxygen): 2.26
Glucose phosphate isomerase expression (clone p1C6, Seq ID 368) ([3]; 20% oxygen): 2.14
Glycogen synthase 1 expression (clone p1G24, Seq ID 276) ([3]; 20% oxygen): 0.34
Hypoxia-inducible protein 2 expression (clone p1D8, Seq ID 272) ([3]; 20% oxygen): 0.44
Interleukin 8 expression (clone p1B14, Seq ID 252) ([3]; 20% oxygen): 9.34
Interleukin 8 expression (clone p1B15, Seq ID 252) ([3]; 20% oxygen): 7.36
Interleukin 8 expression (clone p1B16, Seq ID 252) ([3]; 20% oxygen): 9.52
Plasminogen activator inhibitor, type 1 expression (clone p1B18, Seq ID 236) ([3]; 20% oxygen): 0.49
SCYA2 expression (clone p1P5, Seq ID 396) ([3]; 20% oxygen): 2.12
SCYA4 expression (clone p1K8, Seq ID 408) ([3]; 20% oxygen): 2.48
hypothetical protein FLJ10206 expression (clone p1J6, Seq ID 40) ([3]; 20% oxygen): 0.22
